In data set [1] the test system is A549 cells. Nature of the data set: MTT cytotoxicity assay, A549. Particulars: read-out: cytotoxicity IC50; A549, lung; MTT, 48 h treatment; spread in brackets. An excerpt: (§1) (a) Dulbecco's Modified Eagle Medium (DMEM), Dulbecco's phosphate buffered saline (DPBS), fetal bovine serum (FBS) and 0.25% trypsin/EDTA solutions were purchased from Cellgro (Manassas, Va.). Penicillin-streptomycin solutions were purchased from Mediatech (Manassas, Va.). (b) HeLa (CCL-2TM) cells, A549, A2870, A2870/CP70, MCF-7, PC-3, and MRC-5 cells were purchased from American Type Culture Collection (ATCC, Manassas, Va., USA). (c) HCT116 cells were kindly donated by Laura Trudel (MIT). HeLa, A549, MCF-7, and MRC-5 cells were cultured using DMEM supplemented with 10% FBS and 1% penicillin-streptomycin. A2870, A2870/CP70, and PC-3 cells were cultured in RPMI supplemented with 10% FBS and 1% penicillin-streptomycin. HCT116 cells were cultured in McCoy's supplemented with 10% FBS and 1% penicillin-streptomycin. All cell-culture experiments were performed in the aforementioned media in an incubator operating at 37° C. and in the presence of a humidified atmosphere containing 5.0% CO2. Cells were harvested using a 0.25% trypsin/EDTA solution.
(§2) The cytotoxicity of the compounds was assessed by means of the MTT assay (MTT=3-(4,5-dimethyl-2-thiazolyl)-2,5-diphenyl-2H-tetrazolium bromide). Typically, on day one, ˜1×10^3 cells were seeded into 96-well plates in 100 μL media per well. […] The optical density for each well at 550 nm was measured with a microplate reader.
(Tetrazolium dyes change colour on reduction, which living cells bring about.)

In the next data set the test system is HeLa cells. Kind of data set: MTT cytotoxicity assay, HeLa. The following applies: read-out: cytotoxicity IC50; HeLa, cervical; MTT, 48 h treatment; spread in brackets.
Text: as §1, §2

For data set [2], the system named is A2780/CP70 cells (CisPt resistant). Nature of the data set: MTT cytotoxicity assay, A2780/CP70. Particulars: read-out: cytotoxicity IC50; A2780/CP70, ovarian (CisPt resistant); MTT, 48 h treatment; spread in brackets.
Text: as §1, §2

In the next data set the test system is PC-3 cells. Kind of data set: MTT cytotoxicity assay, PC-3. Particulars: read-out: cytotoxicity IC50; PC-3, prostate; MTT, 48 h treatment; spread in brackets.
Text: as §1
(§3) The cytotoxicity of the compounds was assessed by means of the MTT assay (MTT=3-(4,5-dimethyl-2-thiazolyl)-2,5-diphenyl-2H-tetrazolium bromide). Typically, on day one, ˜1×10^3 cells were seeded into 96-well plates in 100 μL media per well. The last row of the plate was left empty as a control for background absorption. The cells were allowed to grow for 24 h in the incubator at 37° C. On day two, a series of drug dilutions in growth media were prepared immediately prior to cell treatment. The media in the wells of the 96 plates were replaced with 100 μL of growth media containing appropriate drug concentrations. The cells were treated for 48 h at 37° C. in the incubator. On day four, a stock solution of MTT (5 mg/mL in PBS buffer) was diluted with media so that, when 100 μL of the media was added to each well, 10 μL of MTT stock was applied. […] The optical density for each well at 550 nm was measured with a microplate reader.

The test system of another data set is HCT116 cells. Kind of data set: MTT cytotoxicity assay, HCT116. The following applies: read-out: cytotoxicity IC50; HCT116, colon; MTT, 48 h treatment; spread in brackets.
Text: as §1, §3

For data set [3], the system named is MRC-5 non-tumorigenic lung fibroblast cells. Nature of the data set: MTT cytotoxicity assay, MRC-5. The following applies: read-out: cytotoxicity IC50; MRC-5, lung normal; MTT, 48 h treatment; spread in brackets.
Text: as §1
The cytotoxicity of the compounds was assessed by means of the MTT assay (MTT=3-(4,5-dimethyl-2-thiazolyl)-2,5-diphenyl-2H-tetrazolium bromide). Typically, on day one, ˜1×10^3 cells were seeded into 96-well plates in 100 μL media per well. The last row of the plate was left empty as a control for background absorption. The cells were allowed to grow for 24 h in the incubator at 37° C. On day two, a series of drug dilutions in growth media were prepared immediately prior to cell treatment. The media in the wells of the 96 plates were replaced with 100 μL of growth media containing appropriate drug concentrations. The cells were treated for 48 h at 37° C. in the incubator. On day four, a stock solution of MTT (5 mg/mL in PBS buffer) was diluted with media so that, when 100 μL of the media was added to each well, 10 μL of MTT stock was applied. The cells were incubated for 2 h and then all the media was replaced with 100 μL of DMSO to dissolve the purple MTT-formazan crystals. The optical density for each well at 550 nm was measured with a microplate reader.

Another data set concerns all cell lines. Kind of data set: MTT cytotoxicity assay, across the cell lines. Particulars: non-tumorigenic lung fibroblast cells (MRC-5) vs ovarian carcinoma cells (A2780). The class given is cell-based.
Text: as §1, §2

The target in the next data set is T1, Bcl-xL-Bax interactions (Homo sapiens, UniProt Q07817).
T1 construct: endogenous in cells; host or cells: A549
Kind of data set: Co-immunoprecipitation of Bcl-xL, probed for Bax. The class given is cell-based. Particulars: A549 cells, respective IC50 values, 48 h. The protocol:
(§4) α-TOS is known to disrupt Bcl-xL-Bax interactions, activate Bax, and thus mediate mitochondrial centered apoptotic cell death. Co-immunoprecipitation studies were carried out to determine whether the Pt(IV)-α-TOS conjugates could behave in a similar manner. […] Additional immunoblotting studies were carried to determine the effect of Pt(IV)(α-TOS)(OEt) treatment on transcription. […] Overall Pt(IV)(α-TOS)(OEt) was able to (1) downregulate Bcl-xL expression and (2) inhibit the interaction of Bcl-xL with Bax, a prerequisite for mitochondrial dysfunction. The former is inherent to cisplatin but not α-TOS, and the latter was inherent to α-TOS but not cisplatin.
A549 cells (5×10^5 cells) were incubated with test compound for 48 h at 37° C. […] The resultant cell lysate was treated with protein A-agarose bead slurry (50 μL) and centrifuged to remove proteins that bind non-specifically. Anti Bcl-XL antibody (Cell Signalling Technology) was added to the lysate and incubated for 2 h at room temperature. Protein A-agarose bead slurry (50 μL) was added and the mixture was incubated at 4° C. overnight. Centrifugation allowed separation of the immunocomplex, which was washed with cold RIPA buffer (3×500 μL). The immunocomplex was then suspended in SDS-PAGE loading buffer (50 μL) and incubated at 95° C. for 10 min. The solution containing the immunocomplex was isolated by centrifugation and then analysed for Bax content using the immunoblotting analysis protocol described above.

For the next data set, the system named is Bcl-xL. Kind of data set: Immunoblotting analysis of Bcl-xL expression. Particulars: A549 cells. The class given is cell-based. Here is the method:
as §4
(§5) A549 cells (5×10^5 cells) were incubated with test compound for 48 h at 37° C. Cells were washed with PBS, scraped into SDS-PAGE loading buffer (64 mM Tris-HCl (pH6.8)/9.6% glycerol/2% SDS/5% β-mercaptoethanol/0.01% Bromophenol Blue) and incubated at 95° C. for 10 min. Whole cell lysates were resolved by 4-20% sodium dodecylsulphate polyacylamide gel electrophoresis (SDS-PAGE; 200 V for 1 h) followed by electro transfer to polyvinylidene difluoride membrane, PVDF (350 mA for 1 h). Membranes were blocked in 5% (w/v) non-fat milk in PBST (PBS/0.1% Tween 20) and incubated with the appropriate primary antibodies (Cell Signalling Technology and Santa Cruz). After incubation with horseradish peroxidase-conjugated secondary antibodies (Cell Signalling Technology), immune complexes were detected with the ECL detection reagent (BioRad) and analysed using an Alpha Innotech ChemiImager™ 5500 fitted with a chemiluminescence filter.
On the technique in general: A western blot detects proteins with antibodies after separation by electrophoresis.

The subject of data set [4] is A549 cells. Kind of data set: Immunoblotting of DNA damage and apoptosis biomarkers. The class given is cell-based. Particulars: 0.75-6 μM, 48 h. The protocol:
To gain further insight into the cellular response evoked by Pt(IV)(α-TOS)(OEt) treatment, biomarkers related to DNA damage and apoptosis were monitored. […] Whole cell lysates were resolved by SDS-PAGE and analyzed by immunoblotting against γH2AX, p53, and cleaved caspase-7, cleaved caspase-9, cleaved PARP-1, and β-actin as control.
as §5

For data set [5], the system named is A2780 ovarian cancer cells. Nature of the data set: PI-annexin-V dual staining apoptosis assay. The class given is cell-based. Particulars: 4 μM for 48 h.

Results on one compound are retold here after patent publication US9133225B2, “Dual targeting anticancer agents” (priority 2013, dated 2015).

SMILES strings stand for the structures.

T1 sequence (Q07817 whole entry): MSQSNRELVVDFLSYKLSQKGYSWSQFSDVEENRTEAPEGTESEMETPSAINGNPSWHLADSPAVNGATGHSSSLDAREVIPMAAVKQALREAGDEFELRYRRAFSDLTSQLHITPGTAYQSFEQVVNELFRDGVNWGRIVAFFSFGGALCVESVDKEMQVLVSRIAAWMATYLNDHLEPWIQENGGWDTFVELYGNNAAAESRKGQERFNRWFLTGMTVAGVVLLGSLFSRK

The term IC50 denotes the concentration needed to halve the response being measured. With `CC[O][Pt]([NH2])([NH2])([Cl])([Cl])[O]C(=O)CCC(=O)Oc1c(C)c(C)c2c(c1C)CCC(C)(CCCC(C)CCCC(C)CCCC(C)C)O2` (stereo not drawn) [Pt(IV)(α-TOS)(OEt)], the half-inhibitory concentration (IC50) with A549 cells [1] is 1.3 µM; with HeLa cells, 1.9 µM; in data set [2], 1.1 µM; in the data set on PC-3 cells, 2.5 µM; with HCT116 cells, 1.24 µM; in data set [3], 5.3 µM. Also, the “reduction in toxicity for MRC-5 compared to A2780” value with all cell lines is given as 265 fold. In addition, the “Bcl-xL-Bax interaction (Bax associated to the Bcl-xL immunoprecipitate)” value on Bcl-xL-Bax interactions was “reduced Bcl-xL-Bax interactions”. The Bcl-xL expression result in the data set with Bcl-xL is on record as “induced a reduction in Bcl-xL expression”. In addition, in the data set on A549 cells [4], the “cleaved PARP-1 expression” value is “increased”. Also, in the data set on A549 cells [4], the “cleaved caspase-9 expression” value is “increased”. The p53 expression entry with A549 cells [4] is “increased in a dose-dependent manner”. Also, the γH2AX expression result with A549 cells [4] is given as “an increase in γH2AX expression”. For the same compound, the “cell population with characteristics of early apoptosis” value in [5] is recorded as 28%.
